The target of one experiment is T1, TYK2-JH2 domain (Homo sapiens, UniProt P29597).
T1 construct: JAK1-JH2 domain or TYK2-JH2 domain enzyme in assay buffer
Nature of the experiment: Binding activity test for JH2 domain of TYK2 (Tb-antibody/tracer FRET). The settings on record: JH2 domain enzyme; 60 min at 25°C, then 4°C overnight; read-out: TYK2 JH2 Binding IC50. On the procedure: Binding Activity test for JH2 domain of JAK1 and TYK2 […] Add 8μL/well in echo source plate, echo will add 75nL/well with 3-fold serial dilution for 11 points in assay plate. 75nL DMSO for high control and low control. […] For low control, add 5μL/well assay buffer. And then spin down at 1000rpm and centrifuge for 30 seconds. After enzyme system prepared, add 5μL of Tb-antibody solution into each well of assay plate. Spin down at 1000 rpm and centrifuge for 30sec. After Tb-antibody added, also add 5μL of tracer into the assay plate. Spin down at 1000rpm and centrifuge for 30sec. Incubate for […] at 25°C firstly and then continue to incubate the plate at 4°C overnight. Read by envision in FRET mode. The Luminescence value was recorded by a multi-label reader Envision (PerkinElmer). […] Table 2. IC50 on JH2 domain activity (nM)

Experiment [1] has as its system Ba/F3-FL-TYK2-P760L cells. Nature of the experiment: Anti-proliferative assay in engineered Ba/F3 cells (Cell-Titer Glo, 72 h). In kind it is cell-based. The note with it: Mus musculus, BaF3, 72 h, 72 h compound treatment, concentration that causes 50% growth inhibition, read-out: Baf3-FL-T2P760L. The procedure:
Dimerization domain of Tel protein fused with JAK kinase domain was permanently transduced into Ba/F3 cells, whose proliferation is dependent on JAK activity in the absence of IL-3 induction. These engineered Ba/F3-FL-TYK2-P760L cells were used to monitor JAK inhibitory activities of the compounds in the cellular. Ba/F3 cells were cultured in RPMI-1640 (Corning) containing 10% fetal bovine serum. Cells were seeded at 2000/well of white flat bottom 96-well plates. The well containing medium only was used as background control. After 24h growth, cells were treated with compounds. The test compounds were dissolved in DMSO to a stock concentration of 20 mM. 3-fold serially diluted compounds for 9 concentrations with top concentration of 20 µM was added into the each well. The final DMSO concentration was 0.1%. The cells continued to grow at 37°C in 5% CO2 for 72 h after compound treatment. The viability was measured by cellular ATP determination using the Cell-Titer Glo luciferase reagent (Promega). The Luminescence value was recorded by a multi-label reader Envision (PerkinElmer). Inhibition Rate was calculated relative to vehicle (DMSO) treated control wells using following formula: % Inhibition = 100−(RLU_compound−RLU_blank)/(RLU_control−RLU_blank) × 100% [formula] wherein • RLU_compound = the relative light unit of cells treated with test compounds • RLU_blank = the relative light unit of medium with DMSO only • RLU_control = the relative light unit of cells treated with DMSO only
Table 4. Ba/F3-FL-TYK2-P760L Cells IC50 Values of Exemplary Compounds

Each structure is given as a SMILES string.

T1 sequence (P29597 589-875 limits assumed): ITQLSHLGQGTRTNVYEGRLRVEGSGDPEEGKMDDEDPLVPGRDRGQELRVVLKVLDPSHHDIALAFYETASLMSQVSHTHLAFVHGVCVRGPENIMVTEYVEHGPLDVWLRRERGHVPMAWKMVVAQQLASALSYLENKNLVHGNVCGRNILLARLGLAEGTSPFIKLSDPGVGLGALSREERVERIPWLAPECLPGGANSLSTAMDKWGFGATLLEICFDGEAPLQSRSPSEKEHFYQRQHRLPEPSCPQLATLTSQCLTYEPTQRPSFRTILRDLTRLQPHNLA

With `CONC(=O)c1cnc(NC(=O)C2CC2)cc1Nc1nn(C)c2ccc(C(OC)C(F)(F)F)c(OC)c12` (centres unmarked) [Example 73, 6-(Cyclopropanecarboxamido)-N-methoxy-4-((4-methoxy-1-methyl-5-(2,2,2-trifluoro-1-methoxyethyl)-1H-indazol-3-yl)amino)nicotinamide], the figures for the IC50 (on TYK2-JH2 domain; in experiment [1]) were 0.14 nM and 7.56 nM, respectively.

Consider `COC(=O)c1cnc(NC(=O)C2CC2)cc1Nc1nn(C)c2ccc(C(OC)C3(F)CC3)c(OC)c12` (centres unmarked) [Example 74, Methyl 6-(cyclopropanecarboxamido)-4-((5-((1-fluorocyclopropyl) (methoxy)methyl)-4-methoxy-1-methyl-1H-indazol-3-yl)amino)nicotinate], for which the IC50 on TYK2-JH2 domain amounted to 0.18 nM; in experiment [1], 30.7 nM.

In the case of `COC(=O)c1cnc(NC(=O)[C@@H]2C[C@@H]2F)cc1Nc1nn(C)c2ccc([C@H](OC)C(F)(F)F)c(OC)c12` [Example 76, Methyl 6-((1S,2S)-2-fluorocyclopropane-1-carboxamido)-4-((4-methoxy-1-methyl-5-((S)-2,2,2-trifluoro-1-methoxyethyl)-1H-indazol-3-yl)amino)nicotinate], the results for the IC50 (on TYK2-JH2 domain; in experiment [1]) were 0.09 nM and 3.49 nM, respectively.

Turning to `COCCn1nc(Nc2cc(NC(=O)C3CC3)ncc2C(=O)OC)c2c(OC)c(C(OC)C(F)(F)F)ccc21` (centres unmarked) [Example 78, Methyl 6-(cyclopropanecarboxamido)-4-((4-methoxy-1-(2-methoxyethyl)-5-(2,2,2-trifluoro-1-methoxyethyl)-1H-indazol-3-yl)amino)nicotinate], the IC50 worked out at 0.17 nM at TYK2-JH2 domain and 5.26 nM in experiment [1].

Regarding `COC(=O)c1cnc(NC(=O)C2CC2)cc1Nc1csc2ccc(C(OC)C(F)(F)F)c(OC)c12` (centres unmarked) [Example 111, Methyl 6-(cyclopropanecarboxamido)-4-((4-methoxy-5-(2,2,2-trifluoro-1-methoxyethyl)benzo[b]thiophen-3-yl)amino)nicotinate], the IC50 on TYK2-JH2 domain stood at 0.364 nM; in experiment [1], 19 nM.

Regarding `COC(=O)c1cnc(NC(=O)C2CC2)cc1Nc1nn(C)c2ccc(C(C)OC)c(OC)c12` (centres unmarked) [Example 112, Methyl 6-(cyclopropanecarboxamido)-4-((4-methoxy-5-(1-methoxyethyl)-1-methyl-1H-indazol-3-yl)amino)nicotinate], the IC50 on TYK2-JH2 domain was determined as 0.162 nM; in experiment [1] it was 11.4 nM.

In the case of `COC(=O)c1cnc(NC(=O)C2CC2)cc1Nc1nn(C)c2ccc(C(OC)C3CC3)c(OC)c12` (centres unmarked) [Example 114, Methyl 6-(cyclopropanecarboxamido)-4-((5-(cyclopropyl(methoxy)methyl)-4-methoxy-1-methyl-1H-indazol-3-yl)amino)nicotinate], the IC50 on TYK2-JH2 domain is 0.209 nM; in experiment [1], 21.9 nM.

For the compound `COC(=O)c1cnc(NC(=O)C2CC2)cc1Nc1nn(C)c2ccc(C(OC)C(C)(F)F)c(OC)c12` (centres unmarked) [Example 115, Methyl 6-(cyclopropanecarboxamido)-4-((5-(2,2-difluoro-1-methoxypropyl)-4-methoxy-1-methyl-1H-indazol-3-yl)amino)nicotinate], the IC50 on TYK2-JH2 domain came out at 0.182 nM; in experiment [1] it was 5.58 nM.

With `COC(=O)c1cnc(NC(=O)[C@@H]2C[C@@H]2F)cc1Nc1nn(C)c2ccc(C(OC)C(C)(F)F)c(OC)c12` (stereo partly drawn) [Example 116, Methyl 4-((5-(2,2-difluoro-1-methoxypropyl)-4-methoxy-1-methyl-1H-indazol-3-yl)amino)-6-((1S,2S)-2-fluorocyclopropane-1-carboxamido)nicotinate], the IC50 on TYK2-JH2 domain turned out to be 0.188 nM; in experiment [1], 4.65 nM.

`[2H]C([2H])([2H])Oc1c([C@H](OC)C(F)(F)F)ccc2c1c(Nc1cc(NC(=O)C3CC3)ncc1C(=O)OC)nn2C` [Example 120A, Methyl (S)-6-(cyclopropanecarboxamido)-4-((4-(methoxy-d3)-1-methyl-5-(2,2,2-trifluoro-1-methoxyethyl)-1H-indazol-3-yl)amino)nicotinate]: the figures for the IC50 (at TYK2-JH2 domain; in experiment [1]) were 0.089 nM and 2.71 nM, respectively.

The record behind these values is patent EP4813463A2, “TYK2 INHIBITORS AND COMPOSITIONS AND METHODS THEREOF” (Lynk Pharmaceuticals Co. Ltd., priority 2023, dated 2024).
